Data published in patent publication EP2832347B1, “Method for identifying patchouli odorant materials” (Takasago International Corporation, priority 2013, dated 2015).
Several values for one entry are separate records, joined by “and”; a condition that tells them apart may be missing. Equal values may be shown once.

Experiment: Long-lasting analysis on scent strip (GC-MS with internal standard)
Type: physicochemical
Details: for PA (GC-MS signal), sample 1-3 / Ratio PA/IS, sample 1-3: individual scent strips, listed as PA
Experimental: In one embodiment, the long-lasting analysis is carried out as follows: 50 µl of a 1 % solution of the identified candidate to be tested in alcohol, preferably ethanol, are applied on a scent strip, preferably a cellulosic scent strip, to be dosed. The strip is allowed to dry under ambient laboratory conditions, with normal room air movement, in particular no fan, heating or any mean or device to accelerate evaporation. After different times, each strip or at least the part of the scent strip including the area where the solution of the identified candidate to be tested was applied is extracted using 3 ml of alcohol, preferably ethanol, containing an internal standard, such as methyl decanoate. The extracts are then analyzed by gas chromatography and the result is normalized for the principal molecular ion of the identified candidate using the value for the internal standard.
50 µl of a 1 % solution of patchouli alcohol in ethanol was added by pipette to the tip to a series of different scent strips (SARL H. GRANGER-VEYRON, Privas, France). The strips were allowed to dry under ambient laboratory conditions.
After different times (t0, t0+1hour, t0+2hours, t0+4hours, t0+8hours) the tip of a strip where the 50 µl of the solution of the tested material had been applied was cut and put in a 30 ml bottle and extracted using 3 ml of ethanol, containing 50 µl of methyl decanoate as internal standard (10000 ppm solution in cyclohexane), added to each bottle. Care was taken to ensure the entire area around the point of application was included in the area that was cut and extracted. The content of the bottles was mixed for 30 min on a roller bed, and 2 ml vials were then filled with each sample.
Samples were triplicated, i.e. 3 scent strip tips were analysed for each time point.
In a first series of experiments, samples taken at t0, t0+1hour and t0+2hours were analyzed by GC-MS on a […] gas chromatography column (column BC-WAX (50m * 0.25mm * 0.15µm) which is a GC Sciences column supplied by Interchim, Montluçon, France).
In a second series of experiments, samples taken at t0, t0+4hours and t0+8hours were analyzed by GC-MS on a non-polar gas chromatography column (HP-5MS UI (30m * 0.25mm * 0.25µm) which is an Agilent column supplied by Chromoptic, Courtaboeuf, France).
In Tables 6-11, PA stands for patchouli alcohol and IS stands for the internal standard, i.e. methyl decanoate. When plotting the residual concentration of patchouli on the scent strip as a function of time, the mean ratio at t0 was normalized to 100 and then t0+1h, t0+2h, t0+4h and t0+8h were calculated; t0 being defined as 2 minutes after dosing the 50 µl of the solution of the tested material, which was applied towards the tip of the scent strip.
A "long-lasting" analysis of pogostone was performed as described in Example 5 with samples taken at t0, t0+1hour and t0+2hours.
In Tables 12-14 herebelow, POG stands for pogostone and IS stands for the internal standard, i.e. methyl decanoate. The mean ratio at t0 was normalized as described in Example 5.

[1] = t0, second series, HP-5MS UI column

C[C@H]1CC[C@@]2(O)C(C)(C)[C@@H]3CC[C@@]2(C)[C@H]1C3 [Patchouli alcohol]
retained initial concentration (after 1 hour on scent strip): at least 10%
PA (GC-MS signal), mean value (t0+1h, BC-WAX column): 2.09E+06
Ratio PA/IS, mean value (t0+1h, BC-WAX column): 6.70E-01
PA (GC-MS signal), sample 1-3 (t0+1h, BC-WAX column): 2.10E+06 and 2.12E+06 and 2.05E+06
Ratio PA/IS, sample 1-3 (t0+1h, BC-WAX column): 6.50E-01 and 7.16E-01 and 6.43E-01
PA (GC-MS signal), mean value (t0+2h, BC-WAX column): 1.35E+06
Ratio PA/IS, mean value (t0+2h, BC-WAX column): 4.29E-01
PA (GC-MS signal), sample 1-3 (t0+2h, BC-WAX column): 1.38E+06 and 1.32E+06 and 1.35E+06
Ratio PA/IS, sample 1-3 (t0+2h, BC-WAX column): 3.74E-01 and 4.52E-01 and 4.62E-01
PA (GC-MS signal), mean value (t0+4h, HP-5MS UI column): 3.26E+06
Ratio PA/IS, mean value (t0+4h, HP-5MS UI column): 4.15E-01
PA (GC-MS signal), sample 1-3 (t0+4h, HP-5MS UI column): 3.83E+06 and 2.94E+06 and 3.00E+06
Ratio PA/IS, sample 1-3 (t0+4h, HP-5MS UI column): 4.67E-01 and 3.89E-01 (2×)
PA (GC-MS signal), mean value (t0+8h, HP-5MS UI column): 1.58E+06
Ratio PA/IS, mean value (t0+8h, HP-5MS UI column): 1.86E-01
PA (GC-MS signal), sample 1-3 (t0+8h, HP-5MS UI column): 2.02E+06 and 1.37E+06 and 1.35E+06
Ratio PA/IS, sample 1-3 (t0+8h, HP-5MS UI column): 2.16E-01 and 1.77E-01 and 1.65E-01
PA (GC-MS signal), mean value (t0, BC-WAX column): 2.93E+06
Ratio PA/IS, mean value (t0, BC-WAX column): 9.67E-01
PA (GC-MS signal), sample 1-3 (t0, BC-WAX column): 2.98E+06 and 2.87E+06 and 2.94E+06
Ratio PA/IS, sample 1-3 (t0, BC-WAX column): 9.42E-01 and 9.89E-01 and 9.69E-01
PA (GC-MS signal), mean value [1]: 9.18E+06
Ratio PA/IS, mean value [1]: 1.24E+00
PA (GC-MS signal), sample 1-3 [1]: 9.37E+06 and 9.23E+06 and 8.94E+06
Ratio PA/IS, sample 1-3 [1]: 1.25E+00 and 1.22E+00 and 1.26E+00
